The structures appear in SMILES notation.

The results in this text go back to patent US20230286930A1, “N -SUBSTITUTED 4-(1,3-ARYLOXAZOLO-2-YL)PHENYL COMPOUNDS FOR THE TREATMENT AND PROPHYLAXIS OF HEPATITIS B VIRUS INFECTION” (Hoffmann-La Roche Inc., priority 2020, published 2023).

Data set [1] deals with HBsAg. Nature of the data set: PHH natural infection assay, HBsAg (alphalisa). Format: cell-based, HBV. Particulars: Hepatitis B virus, read-out: HBsAg IC50. Summed up: (§1)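 Primary human hepatocytes infected with HBV at 200 GE/cell with 4% PEG8000 for 24 h, then sandwich-cultured 72 h. Compounds applied in two 72-hour treatments; supernatant HBsAg and HBeAg measured by AlphaLISA.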
In general terms: Alpha assays give light when donor and acceptor beads are brought close together.

Data set [2] has as its system HBeAg. Description: PHH natural infection assay, HBeAg (alphalisa). Format: cell-based, HBV. As to conditions: Hepatitis B virus, read-out: HBeAg IC50. Summed up: as §1
The nature of data set [3]: PHH natural infection assay, cytotoxicity (Cell Counting Kit-8). Format: cell-based. As to conditions: human. In a few lines: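 Primary human hepatocytes infected with HBV (200 GE/cell, 4% PEG8000) for 24 h, then sandwich-cultured 72 h. Compounds were added in two 72-h refreshes. Supernatant HBsAg/HBeAg measured by AlphaLISA and HBV DNA by quantitative fluorescence kit. Cytotoxicity read by CCK-8.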
On the technique in general: Tetrazolium dyes change colour on reduction, which living cells bring about.

What is called IC50 is the concentration needed to halve the response being measured. By CC50 is commonly meant the concentration at which the toxic effect on the cells reaches its halfway point. For `O=C(Nc1ccc(-c2nc3cc(Cl)ccc3o2)cc1)c1ccccn1` [Example 74, N-[4-(5-chloro-1,3-benzoxazol-2-yl)phenyl]pyridine-2-carboxamide], the results for the IC50 in data set [1] and in data set [2] were 4100 nM and 5440 nM, respectively. In data set [3], this compound gave a CC50 at 144 h above 100000 nM.
As to `O=C(Nc1ccc(-c2nc3cc(Cl)ccc3o2)cc1)C1CCOC1` (stereo not drawn) [Example 75, N-[4-(5-chloro-1,3-benzoxazol-2-yl)phenyl]tetrahydrofuran-3-carboxamide], the IC50 in data set [1] came to 1100 nM; in data set [2], 1340 nM. This compound returned a CC50 at 144 h in data set [3] above 100000 nM.
For `O=C(Nc1ccc(-c2nc3cc(Cl)ccc3o2)cc1)C12CC(C1)C2` [Example 76, N-[4-(5-chloro-1,3-benzoxazol-2-yl)phenyl]bicyclo[1.1.1]pentane-1-carboxamide] the same measures were 1590 nM, 2110 nM and above 100000 nM.
In the case of `CC(O)C(=O)Nc1ccc(-c2nc3cc(Cl)ccc3o2)cc1` (stereo not drawn) [Example 77, N-[4-(5-chloro-1,3-benzoxazol-2-yl)phenyl]-2-hydroxy-propanamide], the IC50 in data set [1] is 2850 nM; in data set [2], 2540 nM. In addition, the CC50 at 144 h in data set [3] was above 100000 nM.
Take `Cc1cnc(C(=O)Nc2ccc(-c3nc4ccc(F)c(F)c4o3)cc2)o1` [Example 78, N-[4-(6,7-difluoro-1,3-benzoxazol-2-yl)phenyl]-5-methyl-oxazole-2-carboxamide]: the IC50 in data set [1] was determined as 810 nM; in data set [2] it was 1110 nM. The compound further had a CC50 at 144 h in data set [3] above 100000 nM.
Taken in the same sequence, the figures for `Cc1coc(C(=O)Nc2ccc(-c3nc4ccc(F)c(F)c4o3)cc2)n1` [Example 79, N-[4-(6,7-difluoro-1,3-benzoxazol-2-yl)phenyl]-4-methyl-oxazole-2-carboxamide] were 820 nM, 1030 nM and above 100000 nM.
Taken in the same sequence, the figures for `Cc1nnc(C(=O)Nc2ccc(-c3nc4ccc(F)c(F)c4o3)cc2)o1` [Example 80, N-[4-(6,7-difluoro-1,3-benzoxazol-2-yl)phenyl]-5-methyl-1,3,4-oxadiazole-2-carboxamide] were 1340 nM, 2110 nM and above 100000 nM.
For `Cc1ncc(C(=O)Nc2ccc(-c3nc4ccc(F)c(F)c4o3)cc2)o1` [Example 81, N-[4-(6,7-difluoro-1,3-benzoxazol-2-yl)phenyl]-2-methyl-oxazole-5-carboxamide], the IC50 in data set [1] was found to be 1430 nM; in data set [2], 2060 nM. The CC50 at 144 h in data set [3] is above 100000 nM.
`O=C(Nc1ccc(-c2nc3ccc(F)c(F)c3o2)cc1)C1CCOC1` (stereo not drawn) [Example 82, N-[4-(6,7-difluoro-1,3-benzoxazol-2-yl)phenyl]tetrahydrofuran-3-carboxamide]: the IC50 in data set [1] was determined as 520 nM; in data set [2] it was 550 nM. This compound yielded a CC50 at 144 h in data set [3] above 100000 nM.
Regarding `O=C(Nc1ccc(-c2nc3ccc(F)c(F)c3o2)cc1)C1CCS(=O)(=O)C1` (stereo not drawn) [Example 83, N-[4-(6,7-difluoro-1,3-benzoxazol-2-yl)phenyl]-1,1-dioxo-thiolane-3-carboxamide], the IC50 in data set [1] was 1790 nM; in data set [2] it was 2540 nM. The CC50 at 144 h in data set [3] was above 100000 nM.
For `O=C(Nc1ccc(-c2nc3c(F)cc(F)cc3o2)cc1)C1CCOC1` (stereo not drawn) [Example 84, N-[4-(4,6-difluoro-1,3-benzoxazol-2-yl)phenyl]tetrahydrofuran-3-carboxamide] the same measures were 1400 nM, 2010 nM and above 100000 nM.
For `O=C(Nc1ccc(-c2nc3cccc(Cl)c3o2)cc1)C1CCS(=O)(=O)C1` (stereo not drawn) [Example 85, N-[4-(7-chloro-1,3-benzoxazol-2-yl)phenyl]-1,1-dioxo-thiolane-3-carboxamide] the same measures were 2680 nM, 1720 nM and above 100000 nM.
